For series [1], the target named is T1, human carbonic anhydrase-1 (Homo sapiens, UniProt P00915).
T1 construct: purchased Sigma C4396
Description: Carbonic anhydrase assay, carbonic anhydrase-1 (Method 6). Format: biochemical. The note with it: read-out: Inhibition of Carbonic anhydrase-1 IC50. As for the experimental part: 6. Carbonic Anhydrase Assay
The principle of the assay is based on the hydrolysis of 4-nitrophenyl acetate by carbonic anhydrases (Pocker & Stone, Biochemistry, 1967, 6, 668), with subsequent photometric determination of the dye product 4-nitrophenolate at 400 nm by means of a 96-channel spectral photometer.
2 μL of the test compounds, dissolved in DMSO (100-fold final concentration), in a concentration range of 0.03-10 μmol/L (final), was pipetted as quadruplicates into the wells of a 96-hole microtiter plate. Wells that contained the solvent without test compounds were used as reference values (1. Wells without carbonic anhydrase for correction of the non-enzymatic hydrolysis of the substrate, and 2. Wells with carbonic anhydrase for determining the activity of the non-inhibited enzyme).
188 μL of assay buffer (10 mmol/L of Tris/HCl, pH 7.4, 80 mmol/L of NaCl), with or without 3 units/well of carbonic anhydrase-1 [=human carbonic anhydrase-1 (Sigma, #C4396)] in order to determine carbonic anhydrase-1 inhibition or 3 units/well of carbonic anhydrase-2 [=human carbonic anhydrase-2 (Sigma, #C6165)] for measuring carbonic anhydrase-2 inhibition, was pipetted into the wells of the microtiter plate.

Series [2] can be described thus: Equilibrium shake flask solubility assay, thermodynamic solubility in water (Method 4a). Format: physicochemical. Particulars: aqueous buffer, thermodynamic from solid; phosphate buffer pH 6.5, 24 h, room temperature. As for the experimental part:
4. Equilibrium Shake Flask Solubility Assay:
4a) Thermodynamic Solubility in Water
The thermodynamic solubility of compounds in water was determined by an equilibrium shake flask method (see for example: E. H. Kerns, L. Di: Drug-like Properties: Concepts, Structure Design and Methods, 276-286, Burlington, Mass., Academic Press, 2008). A saturated solution of the drug was prepared and the solution was mixed for 24 h to ensure that equilibrium was reached. The solution was centrifuged to remove the insoluble fraction and the concentration of the compound in solution was determined using a standard calibration curve. To prepare the sample, 2 mg solid compound was weighed in a 4 mL glass vial. 1 mL phosphate buffer pH 6.5 was added. The suspension was stirred for 24 hrs at room temperature. The solution was centrifuged afterwards. To prepare the sample for the standard calibration, 2 mg solid sample was dissolved in 30 mL acetonitrile. After sonification the solution was diluted with water to 50 mL. Sample and standards were quantified by HPLC with UV-detection. For each sample two injection volumes (5 and 50 μl) in triplicates were made. Three injection volumes (5 μl, […]) were made for the standard. […]
The areas of sample- and standard injections as well as the calculation of the solubility value (in mg/l) were determined by using HPLC software (Waters Empower 2 FR).

In brackets after ≈: the same amount, converted by molar mass. Bounds are passed on as bounds.

From US9650361B2, “N-(pyridin-2-yl)pyrimidin-4-amine derivatives containing a sulfoximine group” (BAYER PHARAM AKTIENGESELLSCHAFT, priority 2012, dated 2017) come the findings set out here.

The IC50 is the concentration needed to halve the response being measured. Usually solubility stands for the dissolved amount per volume that the medium holds. Low readings indicate little dissolved substance, high ones much dissolved substance.

T1 sequence (P00915 whole entry): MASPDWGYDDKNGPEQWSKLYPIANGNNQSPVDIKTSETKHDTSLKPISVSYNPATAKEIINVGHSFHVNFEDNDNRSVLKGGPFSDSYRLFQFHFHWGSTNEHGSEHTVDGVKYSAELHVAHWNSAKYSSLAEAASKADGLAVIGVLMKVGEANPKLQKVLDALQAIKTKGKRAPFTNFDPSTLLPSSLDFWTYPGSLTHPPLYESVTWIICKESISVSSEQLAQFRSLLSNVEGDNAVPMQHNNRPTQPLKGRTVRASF

`COc1cc(F)ccc1-c1cc(Nc2cc(CS(C)(=N)=O)ccn2)ncn1` (racemic) [Example 1, (rac)-6-(4-Fluoro-2-methoxyphenyl)-N-{4-[(S-methylsulfonimidoyl)methyl]pyridin-2-yl}pyrimidin-4-amine]: the IC50 in series [1] is over 10 µM. In series [2], this compound registered a solubility at 24 h of 7 µg/mL (≈ 18.1 µM).
